Structures are written as SMILES.

Assay [1] deals with HCV genotype 1a (H77 strain) replicon in HUH-7 cells. Briefly: HCV replicon luciferase reporter assay, genotype 1a. It is filed as cell-based. To be noted: Hepatitis C virus, Huh-7, 72 h, HCV genotype 1a replicon luciferase assay, 3 days incubation, range class, read-out: LE_1a (EC50, range). The method, boiled down: (§1)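 Replicon inhibition for both genotypes was measured as Renilla luciferase signal (EnduRen, 7.5 μM final, 2 h) after 3-day, 37° C exposure of replicon-bearing HUH-7 cells in 4% FCS DMEM, 0.5% DMSO. The 1b construct carries S1179I; the 1a H77 construct carries P1496L and S2204I. Twenty-point, 3-fold dilutions were fitted four-parametrically for EC50, and CC50 was taken from multiplexed Cell Titer-Blue.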
(In general: A replicon is a self-replicating genome or part of one, used to study replication in cells.)

The test system of assay [2] is HCV genotype 1b (Con1) replicon in HUH-7 cells. Briefly: HCV replicon luciferase reporter assay, genotype 1b. Conditions: Hepatitis C virus, Huh-7, 72 h, HCV genotype 1b replicon luciferase assay, 3 days incubation, range class, read-out: LE_1b (EC50, range). The assay is classed as cell-based. Put shortly: as §1

As to `COc1cnc(O[C@@H]2C[C@H]3C(=O)N[C@]4(C(=O)NS(=O)(=O)C5(CF)CC5)C[C@H]4/C=C\CC[C@H](C)C[C@@H](C)[C@H](NC(=O)OC4(C(F)(F)F)CCCOC4)C(=O)N3C2)c2ccccc12` (stereo partly drawn) [Compound 1057, 3-(trifluoromethyl)tetrahydro-2H-pyran-3-yl((2R,6S,7R,9S,13aS,14aR,16aS,Z)-14a-(((1-(fluoromethyl)cyclopropyl)sulfonyl)carbamoyl)-2-((4-methoxyisoquinolin-1-yl)oxy)-7,9-dimethyl-5,16-dioxo-1,2,3,5,6,7,8,9,10,11,13a,14,14a,15,16,16a-hexadecahydrocyclopropa[e]pyrrolo[1,2-a][1,4]diazacyclopentadecin-6-yl)carbamate], the EC50 in assay [1] and in assay [2] was less than 5.46 nM throughout.

In the case of `COc1cnc(O[C@@H]2C[C@H]3C(=O)N[C@]4(C(=O)NS(=O)(=O)C5(CF)CC5)C[C@H]4/C=C\CC[C@@H](C)C[C@@H](C)[C@H](NC(=O)OC4(C(F)(F)F)CCCOC4)C(=O)N3C2)c2ccccc12` (stereo partly drawn) [Compound 1058, 3-(trifluoromethyl)tetrahydro-2H-pyran-3-yl((2R,6S,7R,9R,13aS,14aR,16aS,Z)-14a-(((1-(fluoromethyl)cyclopropyl)sulfonyl)carbamoyl)-2-((4-methoxyisoquinolin-1-yl)oxy)-7,9-dimethyl-5,16-dioxo-1,2,3,5,6,7,8,9,10,11,13a,14,14a,15,16,16a-hexadecahydrocyclopropa[e]pyrrolo[1,2-a][1,4]diazacyclopentadecin-6-yl)carbamate], the EC50 in assay [1] and in assay [2] was less than 5.46 nM each time.

For `COc1cnc(O[C@@H]2C[C@H]3C(=O)N[C@]4(C(=O)NS(=O)(=O)C5(CF)CC5)C[C@H]4/C=C\CC[C@H](C)C[C@@H](C)[C@H](NC(=O)OC4(C5CC5)COC4)C(=O)N3C2)c2ccccc12` [Compound 1059, 3-cyclopropyloxetan-3-yl((2R,6S,7R,9S,13aS,14aR,16aS,Z)-14a-(((1-(fluoromethyl)cyclopropyl)sulfonyl)carbamoyl)-2-((4-methoxyisoquinolin-1-yl)oxy)-7,9-dimethyl-5,16-dioxo-1,2,3,5,6,7,8,9,10,11,13a,14,14a,15,16,16a-hexadecahydrocyclopropa[e]pyrrolo[1,2-a][1,4]diazacyclopentadecin-6-yl)carbamate], the EC50 in assay [1] and in assay [2] was 4.82 to 103 nM in each case.

As to `COc1cnc(O[C@@H]2C[C@H]3C(=O)N[C@]4(C(=O)NS(=O)(=O)C5(CF)CC5)C[C@H]4/C=C\CC[C@@H](C)C[C@@H](C)[C@H](NC(=O)OC4(C5CC5)COC4)C(=O)N3C2)c2ccccc12` [Compound 1060, 3-cyclopropyloxetan-3-yl((2R,6S,7R,9R,13aS,14aR,16aS,Z)-14a-(((1-(fluoromethyl)cyclopropyl)sulfonyl)carbamoyl)-2-((4-methoxyisoquinolin-1-yl)oxy)-7,9-dimethyl-5,16-dioxo-1,2,3,5,6,7,8,9,10,11,13a,14,14a,15,16,16a-hexadecahydrocyclopropa[e]pyrrolo[1,2-a][1,4]diazacyclopentadecin-6-yl)carbamate], the EC50 in assay [1] and in assay [2] was less than 5.46 nM throughout.

Turning to `COc1cnc(O[C@@H]2C[C@H]3C(=O)N[C@]4(C(=O)NS(=O)(=O)C5(CF)CC5)C[C@H]4/C=C\CC[C@H](C)C[C@@H](C)[C@H](NC(=O)OC(C)(C)CC(F)(F)F)C(=O)N3C2)c2ccccc12` [Compound 1061, 4,4,4-trifluoro-2-methylbutan-2-yl((2R,6S,7R,9S,13aS,14aR,16aS,Z)-14a-(((1-(fluoromethyl)cyclopropyl)sulfonyl)carbamoyl)-2-((4-methoxyisoquinolin-1-yl)oxy)-7,9-dimethyl-5,16-dioxo-1,2,3,5,6,7,8,9,10,11,13a,14,14a,15,16,16a-hexadecahydrocyclopropa[e]pyrrolo[1,2-a][1,4]diazacyclopentadecin-6-yl)carbamate], the EC50 in assay [1] and in assay [2] was 4.82 to 103 nM throughout.

For the compound `COc1cnc(O[C@@H]2C[C@H]3C(=O)N[C@]4(C(=O)NS(=O)(=O)C5(CF)CC5)C[C@H]4/C=C\CC[C@@H](C)C[C@@H](C)[C@H](NC(=O)OC(C)(C)CC(F)(F)F)C(=O)N3C2)c2ccccc12` [Compound 1062, 4,4,4-trifluoro-2-methylbutan-2-yl((2R,6S,7R,9R,13aS,14aR,16aS,Z)-14a-(((1-(fluoromethyl)cyclopropyl)sulfonyl)carbamoyl)-2-((4-methoxyisoquinolin-1-yl)oxy)-7,9-dimethyl-5,16-dioxo-1,2,3,5,6,7,8,9,10,11,13a,14,14a,15,16,16a-hexadecahydrocyclopropa[e]pyrrolo[1,2-a][1,4]diazacyclopentadecin-6-yl)carbamate], the EC50 in assay [1] and in assay [2] was less than 5.46 nM throughout.

In the case of `COc1cnc(O[C@@H]2C[C@H]3C(=O)N[C@]4(C(=O)NS(=O)(=O)C5(CF)CC5)C[C@H]4/C=C\CC[C@H](C)C[C@@H](C)[C@H](NC(=O)OC4(C)CCOC4)C(=O)N3C2)c2ccccc12` (stereo partly drawn) [Compound 1063, 3-methyltetrahydrofuran-3-yl ((2R,6S,7R,9S,13aS,14aR,16aS,Z)-14a-(((1-(fluoromethyl)cyclopropyl)sulfonyl)carbamoyl)-2-((4-methoxyisoquinolin-1-yl)oxy)-7,9-dimethyl-5,16-dioxo-1,2,3,5,6,7,8,9,10,11,13a,14,14a,15,16,16a-hexadecahydrocyclopropa[e]pyrrolo[1,2-a][1,4]diazacyclopentadecin-6-yl)carbamate], the EC50 in assay [1] is 4.82 to 103 nM; in assay [2], less than 5.46 nM.

As to `COc1cnc(O[C@@H]2C[C@H]3C(=O)N[C@]4(C(=O)NS(=O)(=O)C5(CF)CC5)C[C@H]4/C=C\CC[C@@H](C)C[C@@H](C)[C@H](NC(=O)OC4(C)CCOC4)C(=O)N3C2)c2ccccc12` (stereo partly drawn) [Compound 1064, 3-methyltetrahydrofuran-3-yl ((2R,6S,7R,9R,13aS,14aR,16aS,Z)-14a-(((1-(fluoromethyl)cyclopropyl)sulfonyl)carbamoyl)-2-((4-methoxyisoquinolin-1-yl)oxy)-7,9-dimethyl-5,16-dioxo-1,2,3,5,6,7,8,9,10,11,13a,14,14a,15,16,16a-hexadecahydrocyclopropa[e]pyrrolo[1,2-a][1,4]diazacyclopentadecin-6-yl)carbamate], the EC50 in assay [1] and in assay [2] was less than 5.46 nM each time.

As for `COc1cnc(O[C@@H]2C[C@H]3C(=O)N[C@]4(C(=O)NS(=O)(=O)C5(CF)CC5)C[C@H]4/C=C\CC[C@H](C)C[C@@H](C)[C@H](NC(=O)OC4(C(F)(F)F)CCOC4)C(=O)N3C2)c2ccccc12` (stereo partly drawn) [Compound 1065, 3-(trifluoromethyl)tetrahydrofuran-3-yl((2R,6S,7R,9S,13aS,14aR,16aS,Z)-14a-(((1-(fluoromethyl)cyclopropyl)sulfonyl)carbamoyl)-2-((4-methoxyisoquinolin-1-yl)oxy)-7,9-dimethyl-5,16-dioxo-1,2,3,5,6,7,8,9,10,11,13a,14,14a,15,16,16a-hexadecahydrocyclopropa[e]pyrrolo[1,2-a][1,4]diazacyclopentadecin-6-yl)carbamate], the figures for the EC50 in assay [1] and in assay [2] were 4.82 to 103 nM and less than 5.46 nM, respectively.

As a reminder, the EC50 is the concentration needed to bring the measured effect to its halfway point.

For the origin of these results see patent US9499550B2 (BRISTOL-MYERS SQUIBB COMPANY, priority 2012, dated 2016).
